Measured values: US11344652B2, “Ionic liquids that sterilize and prevent biofilm formation in skin wound healing devices” (The Arizona Board of Regents on Behalf of Northern Arizona …, priority 2016, dated 2022)
Values joined by “and” are separate entries in the source; they are usually repeats but may differ in a detail not shown here. Equal values may be shown once.

Assay: Physical characterization of CAGE at 25° C.
Format: physicochemical
Method: Physical characterization at 25° C. was in good agreement with published values and was as follows: density, 0.989±0.001 g mL^−1; and conductivity, 0.0427±0.0005 mS cm^−1.
Physicochemical properties were identical to those previously published confirming purity (Zakrewsky et al., PNAS, 2014, 111, 13313; incorporated by reference herein in its entirety, and for the disclosure referenced herein). CAGE has unique properties based upon the 1:1:1 ratio of cation:anion:protonated acid. This is important since it gives rise to the low conductivity determined for CAGE (0.043 mS cm^−1) and is a potential indicator of anti-biofilm efficacy but, also provides insight to minimized skin irritation potential.

Question: Which results are given for choline geranate [CAGE]?
Answer: conductivity: 0.0427±0.0005 mS cm^−1 and 0.043 mS cm^−1; density: 0.989 ± 0.001 g/mL
